# In ChEMBL document CHEMBL1146295, “An efficient synthesis of quinoxaline derivatives from 4-chloro-4-deoxy-alpha-D-galactose and their cytotoxic activities” (Bioorg Med Chem Lett, 2007):
# Assay: Cytotoxicity against human Ec9706 cells after 48 hrs by MTT assay
# Assay type: functional, cell-based
# Settings: EC9706, 48 h
row,SMILES,IC50
1,COC(OC)C1OC(C)(C)OC1Cc1cnc2ccc([N+](=O)[O-])cc2n1 (stereo unspecified),69.2 µg/mL
2,COC(OC)C1OC(C)(C)OC1Cc1cnc2ccccc2n1 (stereo unspecified),> 100 µg/mL
3,COC(OC)C1OC(C)(C)OC1Cc1cnc2ccc(C(=O)c3ccccc3)cc2n1 (stereo unspecified),80 µg/mL
4,COC(OC)C1OC(C)(C)OC1Cc1cnc2ccc(Cl)cc2n1 (stereo unspecified),30.5 µg/mL
5,COC(OC)C1OC(C)(C)OC1Cc1cnc2cc(C(=O)c3ccccc3)ccc2n1 (stereo unspecified),80 µg/mL
6,COC(OC)C1OC(C)(C)OC1Cc1cnc2cc(Cl)ccc2n1 (stereo unspecified),30.5 µg/mL
